Measured values reported in patent US9273057B2 (Bristol-Myers Squibb Company, priority 2012, dated 2016).
Counter-ions that a name gives are not always drawn.

What follows are compounds tested against CK2A1 (CK2α/β) (Homo sapiens, UniProt P68400) (assay: CK2 kinase assay, CK2A1 (CK2α/β)). Conditions: Table A; read-out: CK2A1 (CK2α/β) (IC50).
Assay type: biochemical

Chain of CK2A1 (CK2α/β) (P68400 whole entry, species assumed): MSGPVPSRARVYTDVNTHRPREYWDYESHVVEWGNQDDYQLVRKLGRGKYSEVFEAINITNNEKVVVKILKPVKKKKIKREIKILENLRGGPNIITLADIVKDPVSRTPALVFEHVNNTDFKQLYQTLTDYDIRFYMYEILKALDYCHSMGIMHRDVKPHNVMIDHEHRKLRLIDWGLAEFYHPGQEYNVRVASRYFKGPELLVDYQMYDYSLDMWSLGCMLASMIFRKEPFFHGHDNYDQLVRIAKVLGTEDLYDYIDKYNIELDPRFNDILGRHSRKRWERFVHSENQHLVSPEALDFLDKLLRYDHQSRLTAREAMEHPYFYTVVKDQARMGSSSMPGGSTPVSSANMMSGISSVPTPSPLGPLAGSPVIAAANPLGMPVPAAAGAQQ
Chain of CK2A1 (CK2α/β) (P67870 whole entry partner, species assumed): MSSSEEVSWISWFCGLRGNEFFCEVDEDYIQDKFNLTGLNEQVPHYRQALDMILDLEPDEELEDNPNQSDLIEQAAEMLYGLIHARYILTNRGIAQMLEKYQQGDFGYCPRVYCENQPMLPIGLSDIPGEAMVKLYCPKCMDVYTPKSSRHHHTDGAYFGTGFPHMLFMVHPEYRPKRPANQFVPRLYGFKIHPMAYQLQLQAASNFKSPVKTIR

Row | IC50 | SMILES
1 | 3.28 nM | COC1CN(CC(=O)N2CCN(c3cc(C#N)cc(Nc4nc(NC5CC5)c5ncc(C#N)n5n4)c3Cl)CC2)C1 [Example 585, 2-[(2-chloro-5-cyano-3-{4-[2-(3-methoxyazetidin-1-yl)acetyl]piperazin-1-yl}phenyl)amino]-4-(cyclopropylamino)imidazo [2,1-f][1,2,4]triazine-7-carbonitrile]
2 | 0.32 nM | C[C@]1(N)CCN(c2cc(C#N)cc(Nc3nc(NC4CC4)c4ncc(C#N)n4n3)c2Cl)C[C@@H]1O [Example 36, 2-((3-((3S,4S)-4-amino-3-hydroxy-4-methyl-1-piperidinyl)-2-chloro-5-cyanophenyl)amino)-4-(cyclopropylamino)imidazo [2,1-f][1,2,4]triazine-7-carbonitrile]
3 | 1.1 nM | N#Cc1cc(Nc2nc(NC3CC3)c3ncc(C#N)n3n2)c(Cl)c(N2CCN([C@H]3C[C@H](O)C3)CC2)c1 [Example 102, (+/−) 2-((2-chloro-5-cyano-3-(4-(trans-3-hydroxycyclobutyl)-1-piperazinyl)phenyl)amino)-4-(cyclopropylamino) imidazo[2,1-f][1,2,4] triazine-7-carbonitrile]
4 | 1.83 nM | CN1CCCN(c2cc(C#N)cc(Nc3nc(NC4CC4)c4ncc(C#N)n4n3)c2Cl)C(=O)C1 [Example 635, 2-((2-chloro-5-cyano-3-(4-methyl-2-oxo-1,4-diazepan-1-yl)phenyl)amino)-4-(cyclopropylamino)imidazo[2,1-f][1,2,4]triazine-7-carbonitrile]
5 | 1.7 nM | CO[C@@H]1CN(c2cc(C#N)cc(Nc3nc(NC4CC4)c4ncc(C#N)n4n3)c2Cl)CC1NC1COC1 (stereo in doubt) [Example 302, 2-((2-chloro-5-cyano-3-((3R,4S)-3-methoxy-4-(oxetan-3-ylamino)pyrrolidin-1-yl)phenyl)amino)-4-(cyclopropylamino)imidazo[2,1-f][1,2,4]triazine-7-carbonitrile, HCl]
6 | 2.22 nM | CCNc1nc(Nc2cc(C#N)cc(C3CCN(C(C)C(N)=O)CC3)c2Cl)nn2c(C#N)cnc12 (racemic) [Example 640, (+/−)-2-(4-(2-chloro-5-cyano-3-((7-cyano-4-(ethylamino)imidazo[2,1-f][1,2,4]triazin-2-yl)amino)phenyl)piperidin-1-yl)propanamide]
7 | 4.77 nM | N#Cc1cc(Nc2nc(NC3CC3)c3ncc(C#N)n3n2)c(Cl)c(N2CCC(N[C@@H]3CCCC[C@H]3F)CC2)c1 (racemic) [Example 128, (+/−)2-(2-chloro-5-cyano-3-(4-((1R,2S)-2-fluorocyclohexylamino)piperidin-1-yl)phenylamino)-4-(cyclopropylamino)imidazo [1,2-f][1,2,4]triazine-7-carbonitrile]
8 | 0.99 nM | CCNc1nc(Nc2cc(C#N)cc(N3CCN(CC(C)(CO)CO)CC3)c2Cl)nn2c(C#N)cnc12 [Example 604, 2-[(2-chloro-5-cyano-3-{4-[3-hydroxy-2-(hydroxymethyl)-2-methylpropyl]piperazin-1-yl}phenyl)amino]-4-(ethylamino)imidazo[2,1-f][1,2,4]triazine-7-carbonitrile]
9 | 3.67 nM | N#Cc1cc(Nc2nc(NC3CC3)c3ncc(C#N)n3n2)c(Cl)c(N2CCN(C3CN(C(=O)[C@@H]4C[C@H](F)CN4)C3)CC2)c1 [Example 503, 2-{[2-chloro-5-cyano-3-(4-{1-[(2S,4S)-4-fluoropyrrolidine-2-carbonyl]azetidin-3-yl}piperazin-1-yl)phenyl]amino}-4-(cyclopropylamino)imidazo[2,1-f][1,2,4]triazine-7-carbonitrile]
10 | 0.92 nM | CCNc1nc(Nc2cc(C#N)cc(N3CC[C@@H]4[C@@H](C3)OC(=O)N4C3CCOCC3)c2Cl)nn2c(C#N)cnc12 [Example 845]
11 | 4 nM | N#Cc1cc(Nc2nc(NC3CC3)c3ncc(C#N)n3n2)c(Cl)c(C2CCN(C3CCN(C4CC4)CC3)CC2)c1 [Example 213, 2-(2-chloro-5-cyano-3-(1′-cyclopropyl-1,4′-bipiperidin-4-yl)phenylamino)-4-(cyclopropylamino)imidazo[1,2-f][1,2,4]triazine-7-carbonitrile]
12 | 1.4 nM | N#Cc1cc(Nc2nc(NC3CC3)c3ncc(C#N)n3n2)c(Cl)c(N2CCN(C3CN(C(=O)C4CNCCO4)C3)CC2)c1 (stereo not shown) [Example 489, 2-[(2-chloro-5-cyano-3-{4-[1-(morpholine-2-carbonyl)azetidin-3-yl]piperazin-1-yl}phenyl)amino]-4-(cyclopropylamino)imidazo[2,1-f][1,2,4]triazine-7-carbonitrile]
13 | 1.61 nM | CC(CO)N1CCN(c2cc(C#N)cc(Nc3nc(NC4CC4)c4ncc(C#N)n4n3)c2Cl)CC1 (racemic) [Example 54, (+/−) 2-((2-chloro-5-cyano-3-(4-(2-hydroxy-1-methylethyl)-1-piperazinyl)phenyl)amino)-4-(cyclopropylamino) imidazo[2,1-f][1,2,4] triazine-7-carbonitrile]
14 | 1.76 nM | COC[C@H](NC[C@H]1CN(c2cc(C#N)cc(Nc3nc(NC4CC4)c4ncc(C#N)n4n3)c2Cl)CCN1C)C1CC1 [Example 706, 2-({2-chloro-5-cyano-3-[(3S)-3-({[(1R)-1-cyclopropyl-2-methoxyethyl]amino}methyl)-4-methylpiperazin-1-yl]phenyl}amino)-4-(cyclopropylamino)imidazo[2,1-f][1,2,4]triazine-7-carbonitrile]
15 | 1.35 nM | CCNc1nc(Nc2cc(C#N)cc(N3CCN(C4(C)COC4)CC3)c2Cl)nn2c(C#N)cnc12 [Example 542, 2-((2-chloro-5-cyano-3-(4-(3-methyloxetan-3-yl)piperazin-1-yl)phenyl)amino)-4-(ethylamino)imidazo[2,1-f][1,2,4]triazine-7-carbonitrile]
16 | 0.81 nM | N#CCC1(N2CCC(c3cc(C#N)cc(Nc4nc(NC5CC5)c5ncc(C#N)n5n4)c3Cl)CC2)COC1 [Example 378, 2-((2-chloro-5-cyano-3-(1-(3-(cyanomethyl)oxetan-3-yl)piperidin-4-yl)phenyl)amino)-4-(cyclopropylamino)imidazo[2,1-f][1,2,4]triazine-7-carbonitrile]
17 | 2.32 nM | CCNc1nc(Nc2cc(C#N)cc(N3CC[C@H](NC(=O)OC)[C@H](F)C3)c2Cl)nn2c(C#N)cnc12 [Example 331, methyl ((3R,4S)-1-(2-chloro-5-cyano-3-((7-cyano-4-(ethylamino)imidazo[2,1-f][1,2,4]triazin-2-yl)amino)phenyl)-3-fluoro-4-piperidinyl)carbamate]
18 | 1.31 nM | N#Cc1cc(Nc2nc(NC3CC3)c3ncc(C#N)n3n2)c(Cl)c(N2CCN3CCOC[C@@H]3C2)c1 [Example 309, (S)-2-((2-chloro-5-cyano-3-(hexahydropyrazino[2,1-c][1,4]oxazin-8(1H)-yl)phenyl)amino)-4-(cyclopropylamino)imidazo[2,1-f][1,2,4]triazine-7-carbonitrile]
19 | 2.27 nM | CN1CCC(N2CC(F)(c3cc(C#N)cc(Nc4nc(NC5CC5)c5ncc(C#N)n5n4)c3Cl)C2)CC1 [Example 658, 2-((2-chloro-5-cyano-3-(3-fluoro-1-(1-methylpiperidin-4-yl)azetidin-3-yl)phenyl)amino)-4-(cyclopropylamino)imidazo[2,1-f][1,2,4]triazine-7-carbonitrile]
20 | 0.7 nM | N#Cc1cc(Nc2nc(NC3CC3)c3ncc(C#N)n3n2)c(Cl)cc1CCCN1CC(O)C1 [Example 569, 2-((2-chloro-5-cyano-4-(3-(3-hydroxyazetidin-1-yl)propyl)phenyl)amino)-4-(cyclopropylamino)imidazo[2,1-f][1,2,4]triazine-7-carbonitrile]
21 | 0.78 nM | N#Cc1cc(Nc2nc(NC3CC3)c3ncc(C#N)n3n2)c(Cl)c(C2CCN(C(=O)C3CC3)CC2)c1 [Example 236, 2-((2-chloro-5-cyano-3-(1-(cyclopropylcarbonyl)-4-piperidinyl)phenyl)amino)-4-(cyclopropylamino)imidazo[2,1-f][1,2,4]triazine-7-carbonitrile]
22 | 0.78 nM | CCNc1nc(Nc2cc(C#N)cc(N3CCC(NC4COC4)CC3)c2Cl)nn2c(C#N)cnc12 [Example 363, 2-((2-chloro-5-cyano-3-(4-(oxetan-3-ylamino)piperidin-1-yl)phenyl)amino)-4-(ethylamino)imidazo[2,1-f][1,2,4]triazine-7-carbonitrile]
23 | 0.92 nM | N#Cc1cc(Nc2nc(NC3CC3)c3ncc(C#N)n3n2)c(Cl)c(N2CCN(C(=O)CC3CCOCC3)CC2)c1 [Example 95, 2-((2-chloro-5-cyano-3-(4-(tetrahydro-2H-pyran-4-ylacetyl)-1-piperazinyl)phenyl)amino)-4-(cyclopropylamino) imidazo[2,1-f][1,2,4] triazine-7-carbonitrile]
24 | 0.54 nM | CS(=O)(=O)CCN1CC(N2CCN(c3cc(C#N)cc(Nc4nc(NC5CC5)c5ncc(C#N)n5n4)c3Cl)CC2)C1 [Example 70]
25 | 1.4 nM | CCNc1nc(Nc2cc(C#N)cc(N3CC[C@@H](NC(=O)OC)[C@H](N[C@H](C)C(N)=O)C3)c2Cl)nn2c(C#N)cnc12 [Example 758, methl N-[(3R,4R)-3-{[(1S)-1-carbamoylethyl]amino}-1-(2-chloro-5-cyano-3-{[7-cyano-4-(ethylamino)imidazo[2,1-f][1,2,4]triazin-2-yl]amino}phenyl)piperidin-4-yl]carbamate]
26 | 3.4 nM | CC1(O)CCN(CC(O)c2cc(C#N)cc(Nc3nc(NC4CC4)c4ncc(C#N)n4n3)c2Cl)CC1 (stereo not shown) [Example 690, 2-((2-chloro-5-cyano-3-(1-hydroxy-2-(4-hydroxy-4-methylpiperidin-1-yl)ethyl)phenyl)amino)-4-(cyclopropylamino)imidazo[2,1-f][1,2,4]triazine-7-carbonitrile]
27 | 1.01 nM | CN1C(C)(C)CC(NC2CCN(c3cc(C#N)cc(Nc4nc(NC5CC5)c5ncc(C#N)n5n4)c3Cl)CC2)CC1(C)C [Example 124, 2-((2-chloro-5-cyano-3-(4-((1,2,2,6,6-pentamethyl-4-piperidinyl)amino)-1-piperidinyl)phenyl)amino)-4-(cyclopropylamino)imidazo [2,1-f][1,2,4]triazine-7-carbonitrile]
28 | 0.76 nM | N#Cc1cnc2c(NC3CC3)nc(Nc3cc(C(F)F)cc(N4CC(N5CCOCC5)C4)c3Cl)nn12 [Example 279, 2-((2-chloro-5-(difluoromethyl)-3-(3-(4-morpholinyl)-1-azetidinyl)phenyl)amino)-4-(cyclopropylamino)imidazo[2,1-f][1,2,4]triazine-7-carbonitrile]
